Assay results taken from patent US9981918B2, “Kynurenine-3-monooxygenase inhibitors, pharmaceutical compositions, and methods of use thereof” (CHDI Foundation, Inc., priority 2011, dated 2018).

What follows are compounds tested on KMO (assay: KMO inhibition: L-Kynurenine hydroxylation to 3-Hydroxy-Kynurenine monitored by LC/MS). Details: compound at 10 uM; footnote: some portion of activity of amides may be due to contribution of acid precursor.
Format: biochemical
Description: A generalized procedure for monitoring L-Kynurenine (KYN) hydroxylation to form product 3-Hydroxy-Kynurenine (30H-KYN) by LC/MS is described below. Product is quantified by multiple reaction monitoring using MS.
A method of monitoring L-Kynurenine (KYN) hydroxylation to form product 3-Hydroxy-Kynurenine (30H-KYN) by LC/MS is described below. Product is quantified by multiple reaction monitoring.
• Compound: Stock concentrations: 10 mM in 100% DMSO • Enzyme: KMO enzyme prepared at Evotec via mitochondria isolation from CHO-GST HIS KMO cells • Substrate: L-Kynurenine (Sigma: Cat# K3750) • [stock concentration: 10 mM in 100 mM potassium phosphate buffer, pH 7.4]
A method of monitoring L-Kynurenine (KYN) hydroxylation to form 3-Hydroxy-Kynurenine (30H-KYN) by LC/MS is described. Product is quantified by multiple reaction monitoring (MRM method).

First: CCC(C)Oc1ccc(-c2ccnc(C(=O)O)c2)cc1Cl (stereo in doubt) [listing 1 of 2 here]
Second: CC(C)Oc1ccc(-c2ccnc(C(=O)O)c2)cc1Cl [4-(3-Chloro-4-isopropoxy-phenyl)-pyridine-2-carboxylic acid]
The “% Inhibition at 10 uM*” value of the first is lower: 50% for the first, 80% for the second.

First: CCC(C)Oc1ccc(-c2ccnc(C(=O)O)c2)cc1Cl (stereo in doubt) [listing 2 of 2 here]
Second: CCC(C)Oc1ccc(-c2cc(C(=O)O)ncn2)cc1Cl (stereo in doubt) [6-(4-(R)-sec-Butoxy-3-chloro-phenyl)-pyrimidine-4-carboxylic acid]
The “% Inhibition at 10 uM*” value of the first is lower: 82% for the first, 100% for the second.

First: CCC(C)Oc1ccc(-c2cc(C(=O)O)ncn2)cc1Cl (stereo in doubt) [6-(4-(S)-sec-Butoxy-3-chloro-phenyl)-pyrimidine-4-carboxylic acid]
Second: CC(Oc1ccc(-c2cc(C(=O)O)ncn2)cc1Cl)C(F)(F)F (stereo not drawn) [6-[3-Chloro-4-(2,2,2-trifluoro-1-methyl-ethoxy)-phenyl]-pyrimidine-4-carboxylic acid]
The “% Inhibition at 10 uM*” value of the first is higher: 100% for the first, 94% for the second.

`O=C(O)c1cc(-c2ccc(OC3CC3)c(Cl)c2)ccn1` [4-(3-Chloro-4-cyclopropoxy-phenyl)-pyridine-2-carboxylic acid] and `O=C(O)c1cc(-c2ccc(OC3CC3)c(Cl)c2)ncn1` [6-(3-Chloro-4-cyclopropoxy-phenyl)-pyrimidine-4-carboxylic acid] are the same in “% Inhibition at 10 uM*” value: 100% for the first, 100% for the second.

`O=C1OCCc2c1ncnc2-c1ccc(OC2CC2)c(Cl)c1` [4-(3-chloro-4-cyclopropoxyphenyl)-5H,6H,8H-pyrano[3,4-d]pyrimidin-8-one] and `O=C1OCc2c1ncnc2-c1ccc(OC2CC2)c(Cl)c1` [4-(3-chloro-4-cyclopropoxyphenyl)-5H,7H-furo[3,4-d]pyrimidin-7-one] are the same in “% Inhibition at 10 uM*” value: 100% for the first, 100% for the second.

Compared with `O=C(O)c1cc(-c2ccc3c(c2)OCO3)ncn1` [6-(2H-1,3-benzodioxol-5-yl)pyrimidine-4-carboxylic acid], `Nc1cc(-c2cc(C(=O)O)ncn2)ccc1Cl` [6-(3-Amino-4-chloro-phenyl)-pyrimidine-4-carboxylic acid] is higher in “% Inhibition at 10 uM*” value: 101% for the first, 101.01% for the second.

First: Cc1nc(C(=O)O)cc(-c2ccc(OC(C)C)c(Cl)c2)n1 [6-(3-Chloro-4-isopropoxy-phenyl)-2-methyl-pyrimidine-4-carboxylic acid]
Second: Cc1nc(C(=O)O)cc(-c2ccc(C)c(F)c2)n1 [6-(3-Fluoro-4-methyl-phenyl)-2-methyl-pyrimidine-4-carboxylic acid]
The “% Inhibition at 10 uM*” value of the first is lower: 70% for the first, 96% for the second.

Going from `CC(C)c1ccc(-c2cc(C(=O)O)ncn2)cc1Cl` [6-(3-Chloro-4-isopropyl-phenyl)-pyrimidine-4-carboxylic acid] to `COC(C)c1ccc(-c2cc(C(=O)O)ncn2)cc1Cl` (stereo not drawn) [6-[3-chloro-4-(1-methoxyethyl)phenyl]pyrimidine-4-carboxylic acid], the “% Inhibition at 10 uM*” value rises from 100% to 101%.

Compared with `CC(C)c1ccc(-c2cc(C(=O)O)ncn2)cc1F` [6-(3-Fluoro-4-isopropyl-phenyl)-pyrimidine-4-carboxylic acid], `CSc1ccc(-c2cc(C(=O)O)ncn2)cc1Cl` [6-[3-chloro-4-(methylsulfanyl)phenyl]pyrimidine-4-carboxylic acid] is higher in “% Inhibition at 10 uM*” value: 85% for the first, 103% for the second.

Compared with `O=C(O)c1cc(-c2ccc(C(=O)C3CC3)c(Cl)c2)ncn1` [6-(3-chloro-4-cyclopropanecarbonylphenyl)pyrimidine-4-carboxylic acid], `O=C(O)c1cc(-c2ccc(C(O)C3CC3)c(Cl)c2)ncn1` (stereo not drawn) [6-{3-chloro-4-[cyclopropyl(hydroxy)methyl]phenyl}pyrimidine-4-carboxylic acid] is lower in “% Inhibition at 10 uM*” value: 101% for the first, 90% for the second.

`O=C(O)c1ncnc(-c2ccc(OC3CC3)c(Cl)c2)c1CO` [6-(3-chloro-4-cyclopropoxyphenyl)-5-(hydroxymethyl)pyrimidine-4-carboxylic acid] and `Cc1c(C(=O)O)ncnc1-c1ccc(OC2CC2)c(Cl)c1` [6-(3-chloro-4-cyclopropoxyphenyl)-5-methylpyrimidine-4-carboxylate] are the same in “% Inhibition at 10 uM*” value: 100% for the first, 100% for the second.

`Cc1nc2c(Cl)cc(-c3cc(C(=O)O)ncn3)cc2o1` [6-(4-chloro-2-methyl-1,3-benzoxazol-6-yl)pyrimidine-4-carboxylic acid] and `Cc1nc2cc(-c3cc(C(=O)O)ncn3)cc(Cl)c2o1` [6-(7-chloro-2-methyl-1,3-benzoxazol-5-yl)pyrimidine-4-carboxylic acid] are the same in “% Inhibition at 10 uM*” value: 102% for the first, 102% for the second.

`O=C(O)c1cc(-c2cc(Cl)c3occc3c2)ncn1` [6-(7-Chloro-benzofuran-5-yl)-pyrimidine-4-carboxylic acid] and `Cn1c(=O)oc2c(Cl)cc(-c3cc(C(=O)O)ncn3)cc21` [6-(7-chloro-3-methyl-2-oxo-2,3-dihydro-1,3-benzoxazol-5-yl)pyrimidine-4-carboxylic acid] are the same in “% Inhibition at 10 uM*” value: 100% for the first, 100% for the second.

Compared with `O=C(O)c1cc(-c2cc(Cl)c3c(c2)CCO3)ncn1` [6-(7-chloro-2,3-dihydro-1-benzofuran-5-yl)pyrimidine-4-carboxylic acid], `O=C(O)c1cc(-c2cc(Cl)c3c(c2)CCCO3)ncn1` [6-(8-Chloro-chroman-6-yl)-pyrimidine-4-carboxylic acid] is lower in “% Inhibition at 10 uM*” value: 102% for the first, 100% for the second.

Compared with `O=C(O)c1cc(-c2cc(Cl)c3oc(C4CC4)nc3c2)ncn1` [6-(7-chloro-2-cyclopropyl-1,3-benzoxazol-5-yl)pyrimidine-4-carboxylic acid], `O=C(O)c1cc(-c2cc(Cl)c3nccnc3c2)ncn1` [6-(8-chloroquinoxalin-6-yl)pyrimidine-4-carboxylic acid] is higher in “% Inhibition at 10 uM*” value: 100% for the first, 102% for the second.

`O=C(O)c1cc(-c2cc(Cl)c3c(c2)CCCN3)ncn1` [6-(8-chloro-1,2,3,4-tetrahydroquinolin-6-yl)pyrimidine-4-carboxylate] and `CN1CCCc2cc(-c3cc(C(=O)O)ncn3)cc(Cl)c21` [6-(8-chloro-1-methyl-1,2,3,4-tetrahydroquinolin-6-yl)pyrimidine-4-carboxylic acid] are the same in “% Inhibition at 10 uM*” value: 100% for the first, 100% for the second.

`O=C([O-])c1cc(-c2cc(Cl)c3ncccc3c2)ncn1.[Na+]` [6-(8-chloroquinolin-6-yl)pyrimidine-4-carboxylate] and `O=C(O)c1cc(-c2ccc3ncccc3c2)ncn1` [6-Quinolin-6-yl-pyrimidine-4-carboxylic acid] are the same in “% Inhibition at 10 uM*” value: 100% for the first, 100% for the second.

Going from `O=C(O)c1cc(-c2ccc(OCCN3CCCCC3)c(Cl)c2)ncn1` [6-[3-Chloro-4-(2-piperidin-1-yl-ethoxy)-phenyl]-pyrimidine-4-carboxylic acid] to `O=C(O)c1cc(-c2ccc(OC3CCNC3)c(Cl)c2)ncn1` (stereo not drawn) [6-[3-Chloro-4-(pyrrolidin-3-yloxy)-phenyl]-pyrimidine-4-carboxylic acid], the “% Inhibition at 10 uM*” value falls from 90% to 80%.

First: O=C(O)c1cc(-c2ccc(NC3CC3)c(Cl)c2)ncn1 [6-[3-chloro-4-(cyclopropylamino)phenyl]pyrimidine-4-carboxylic acid]
Second: CN(c1ccc(-c2cc(C(=O)O)ncn2)cc1Cl)C1CC1 [6-{3-chloro-4-[cyclopropyl(methyl)amino]phenyl}pyrimidine-4-carboxylic acid]
The “% Inhibition at 10 uM*” value of the first is higher: 101% for the first, 96% for the second.

Going from `COCc1ccc(-c2cc(C(=O)O)ncn2)cc1Cl` [6-[3-chloro-4-(methoxymethyl)phenyl]pyrimidine-4-carboxylic acid] to `CN(C)Cc1ccc(-c2cc(C(=O)O)ncn2)cc1Cl` [6-{3-chloro-4-[(dimethylamino)methyl]phenyl}pyrimidine-4-carboxylic acid], the “% Inhibition at 10 uM*” value falls from 105% to 65%.

`C[S+]([O-])c1ccc(-c2cc(C(=O)O)ncn2)cc1Cl` (stereo not drawn) [6-[3-chloro-4-(methylsulfinyl)phenyl]pyrimidine-4-carboxylic acid] and `CS(=O)(=O)c1ccc(-c2cc(C(=O)O)ncn2)cc1Cl` [6-[3-chloro-4-(methylsulfonyl)phenyl]pyrimidine-4-carboxylic acid] are the same in “% Inhibition at 10 uM*” value: 100% for the first, 100% for the second.

Going from `O=C(Nc1cccnc1)c1cc(-c2ccc(Cl)c(OC3CCOC3)c2)ncn1` (stereo not drawn) [6-[4-Chloro-3-(tetrahydro-furan-3-yloxy)-phenyl]-pyrimidine-4-carboxylic acid pyridin-3-ylamide] to `O=S(=O)(Nc1cc(-c2ccc(OC3CC3)c(Cl)c2)ncn1)c1ccccc1F` [N-[6-(3-chloro-4-cyclopropoxyphenyl)pyrimidin-4-yl]-2-fluorobenzene-1-sulfonamide], the “% Inhibition at 10 uM*” value rises from 88.39% to 96%.

For `O=S(=O)(Nc1cc(-c2ccc(OC3CC3)c(Cl)c2)ncn1)c1ccc(OC(F)(F)F)cc1` [N-[6-(3-chloro-4-cyclopropoxyphenyl)pyrimidin-4-yl]-4-(trifluoromethoxy)benzene-1-sulfonamide], the “% Inhibition at 10 uM*” value was 88%.
